Experimental data: US5876956A, “Methods for identification or purification of cells containing an enzymatic intracellular marker” (Johns Hopkins University School of Medicine, priority 1995, dated 1999)

What was measured:
Mouse CFU-S (day 8) = Mouse CFU-S (day 8) of bone marrow cells isolated by DAAA and flow cytometry; format: in vivo
Method: (§1) In an attempt to examine cytosolic ALDH on a single-cell basis, leukemia cell lines and bone marrow cells were incubated with the fluorescent substrate DAAA, washed, and subjected to flow cytometry. The cell lines and plastic nonadherent mononuclear marrow cells were incubated with 50 μM DAAA at 10^6 cells/ml for 30 minutes at 37° C. After washing twice, some mononuclear marrow cells were treated with fluorescent monoclonal antibodies (Becton-Dickinson, Mountain View, Calif.), as previously described ([…] et al., Blood 74:1517, 1989) to study cytosolic ALDH activity of CD34^+, CD19^+, and CD5^+ marrow cells. […] Dansyl fluorescence was excited at both 351.1 nm and 363.8 nm using a multiline ultraviolet filter, and was detected at 521 nm. Cytosolic ALDH activity was estimated by the corrected mean fluorescence intensity (MFI) ([…] et al., Blood 75:1947, 1990; […], 1989, supra] of dansyl staining, which equals the mean fluorescence of unstained cells subtracted from the mean fluorescence of cells treated with DAAA. The mean fluorescence level represents the average channel value for a given sample on the flow cytometer. To confirm that cellular dansyl fluorescence was the result of the activity of cytosolic ALDH, L1210/CPA cells were incubated with 50 μM 4-(diethylamino) benzaldehyde (DEAB) for 15 minutes at 37° C. prior to the DAAA incubations to inhibit cytosolic ALDH activity. […]

Mouse CFU-GM = experiment: Growth of mouse bone marrow progenitors isolated by DAAA and flow cytometry; format: cell-based
Method: as §1

Human CFU-GM = experiment: Growth of human bone marrow hematopoietic progenitors after DAAA and flow cytometry; format: cell-based
Method: In an attempt to examine cytosolic ALDH on a single-cell basis, leukemia cell lines and bone marrow cells were incubated with the fluorescent substrate DAAA, washed, and subjected to flow cytometry. The cell lines and plastic nonadherent mononuclear marrow cells were incubated with 50 μM DAAA at 10^6 cells/ml for 30 minutes at 37° C. After washing twice, some mononuclear marrow cells were treated with fluorescent monoclonal antibodies (Becton-Dickinson, Mountain View, Calif.), as previously described ([…] et al., Blood 74:1517, 1989) to study cytosolic ALDH activity of CD34^+, CD19^+, and CD5^+ marrow cells. The cells were sorted on a Epics 753 Dual Laser Flow Cytometer (Coulter Electronics, Hialeah, Fla.) equipped with two 90-5 water cooled argon lasers (Coherent, Palo Alto, Calif.). Dansyl fluorescence was excited at both 351.1 nm and 363.8 nm using a multiline ultraviolet filter, and was detected at 521 nm. Cytosolic ALDH activity was estimated by the corrected mean fluorescence intensity (MFI) ([…] et al., Blood 75:1947, 1990; […], 1989, supra] of dansyl staining, which equals the mean fluorescence of unstained cells subtracted from the mean fluorescence of cells treated with DAAA. The mean fluorescence level represents the average channel value for a given sample on the flow cytometer. To confirm that cellular dansyl fluorescence was the result of the activity of cytosolic ALDH, L1210/CPA cells were incubated with 50 μM 4-(diethylamino) benzaldehyde (DEAB) for 15 minutes at 37° C. prior to the DAAA incubations to inhibit cytosolic ALDH activity. […] (J. E. Russo et al., Biochem Pharmacol 37:1639, 1988) L1210/CPA cells were also incubated with 50 μM dansyl glycine (DG) alone (Sigma, St. Louis, Mo.) at 10^6 cells/ml for 30 minutes at 37° C. […] The data in Table 1 show the results of flow cytometry sorting of human and mouse marrow cells based on their fluorescence intensity after incubation with DAAA. The assays of progenitor content is also shown. Isolation of bone marrow cells with high ALDH expression by fluorescence sorting based on DAAA was enriched for hematopoietic progenitors capable of both in vitro and in vivo growth. The 5% of human bone marrow cells with highest dansyl fluorescence produced substantially more CFU-GM than the 5% of cells with lowest dansyl fluorescence (p=0.007, T-test). Similarly, using DAAA-derived fluorescence, it was possible to obtain a composition that is enriched for CFU-GM (p=0.03) and the more primitive CFU-S (p=0.01) from mouse bone marrow.

cytosolic ALDH = conditions: J. E. Russo et al., Biochem Pharmacol 37:1639, 1988; cited from earlier work
cells = conditions: in vitro and in vivo; J. E. Russo et al., 1988; cited from earlier work
L1210/CPA cells = experiment: Flow cytometry of dansyl fluorescence in cells incubated with the compound; format: cell-based, mouse; conditions: L1210/CPA cells incubated with 50 μM dansyl glycine alone, 10^6 cells/ml, 30 minutes, 37° C.; FIG. 1E
Method: In an attempt to examine cytosolic ALDH on a single-cell basis, leukemia cell lines and bone marrow cells were incubated with the fluorescent substrate DAAA, washed, and subjected to flow cytometry. The cell lines and plastic nonadherent mononuclear marrow cells were incubated with 50 μM DAAA at 10^6 cells/ml for 30 minutes at 37° C. After washing twice, some mononuclear marrow cells were treated with fluorescent monoclonal antibodies (Becton-Dickinson, Mountain View, Calif.), as previously described (M. B. Kastan et al., Blood 74:1517, 1989) to study cytosolic ALDH activity of CD34^+, CD19^+, and CD5^+ marrow cells. The cells were sorted on a Epics 753 Dual Laser Flow Cytometer (Coulter Electronics, Hialeah, Fla.) equipped with two 90-5 water cooled argon lasers (Coherent, Palo Alto, Calif.). Dansyl fluorescence was excited at both 351.1 nm and 363.8 nm using a multiline ultraviolet filter, and was detected at 521 nm. […]

[1] = 5% cells with the highest fluorescence after DAAA
[2] = 5% of cells with the lowest fluorescence after DAAA

CN(C)c1cccc2c(S(=O)(=O)NCC=O)cccc12 [DAAA, N-dansyl aminoacetaldehyde]
Colonies/10^5 cells, Mouse CFU-S (day 8), Dansyl+ (Mouse CFU-S (day 8); [1]): 23.5 ± 1 Colonies/10^5 cells
Colonies/10^5 cells, Mouse CFU-S (day 8), Dansyl- (Mouse CFU-S (day 8); [2]): 7 ± 1.3 Colonies/10^5 cells
Colonies/10^5 cells, Mouse CFU-GM, Dansyl+ (Mouse CFU-GM; [1]): 800 ± 185 Colonies/10^5 cells
Colonies/10^5 cells, Mouse CFU-GM, Dansyl- (Mouse CFU-GM; [2]): 250 ± 60 Colonies/10^5 cells
Colonies/10^5 cells, Human CFU-GM, Dansyl+ MNMC (Human CFU-GM; [1]): 216 ± 13 Colonies/10^5 cells
Colonies/10^5 cells, Human CFU-GM, Dansyl- MNMC (Human CFU-GM; [2]): 67 ± 20 Colonies/10^5 cells
harm to cells / progenitor growth after DAAA treatment (Human CFU-GM; human bone marrow cells treated with DAAA and processed by flow cytometry (not sorted)): did not appear to harm cells
Colonies/10^5 cells, Human CFU-GM, Stained MNMC (Human CFU-GM; mononuclear marrow cells incubated with DAAA and processed (but not sorted) by flow cytometry, unstained MNMC 163 ± 5): 155 ± 5 Colonies/10^5 cells

CCN(CC)c1ccc(C=O)cc1 [DEAB, 4-(diethylamino) benzaldehyde]
inhibition of cytosolic ALDH (cytosolic ALDH): specific, competitive inhibitor of cytosolic ALDH
toxicity to cells (cells): nontoxic to cells in vitro and in vivo

CN(C)c1cccc2c(S(=O)(=O)NCC(=O)O)cccc12 [dansyl glycine]
dansyl fluorescence of cells (L1210/CPA cells): no detectable fluorescence
